Results from patent publication US20040058983A1, “Plan-derived and synthetic phenolic compounds and plant extracts, effective in the treatment and prevention of chlamydial infections” (priority 2000, published 2004).

What was measured:
Ca^2+ intake in the cell = assay: Effect of the compounds on the calcium influx (Ca2+ intake) to the cell; format: cell-based; details: compound 20 μg/ml; − = decrease, + = increase
Source text: (§1) In the following Table I some of the preferred plant-derived phenolic compounds according to the present invention, the effect of the compounds on the calcium influx to the cell, the antioxidant effect as well as the chemical structure of the compounds are presented.

[1] = Antioxidant effect, IC50 against DPPH; format: biochemical; details: read-out: IC50 [moles L^−1] against DPPH′
Source text: as §1

C. pneumoniae = assay: Direct anti-chlamydial effect of compounds and mixtures on C. pneumoniae (Example 5); format: cell-based; details: 50 μM; for inhibition at 50 µM: Chlamydia pneumoniae, read-out: Inhibition %
Experimental: Direct Anti-Chlamydial Effect of Plant-Derived Phenolic Compounds, Certain Synthetic Compounds and Mixtures on C. pneumoniae
The concentration used was 50 μM.
The cultivated HL cells are infected with C. pneumoniae EB's. The EB's which have invaded the cell are changed into the metabolically active reticulate body (RB) which are dividing by binary fission in the endosome vacuole or inclusion.
After a certain time (about 72 hr) the C. pneumoniae RB's are condensing back into EB's, after which the inclusions are broken, the host cells are broken and the EB's are liberated. In this method the intention is to verify the inclusions before the breaking up of the host cells.
On the day preceding the infection the host cells are inoculated on a 24-well plate: the cells are harvested by trypsinisation, they are suspended in ca. 5 ml of the nutrition liquid and counted in a Burker's chamber. Each well are seeded using a concentration of 250000-400000 cells/well for cultivation. Before the addition of the cells to the well is if necessary round cover glass (diameter 13 mm) put for staining. Nutrition liquid is added so that the volume is 1 ml/well. On the following day the cells are infected with the desired bacterium.
Solution to be used in the infection and containing chlamydiae particles is mixed throughout. The old nutrition liquid is aspirated away. By the infection the inoculum which has been stored at −70° C. is diluted to an IFU concentration of ca. 10^3 so that the volume of the solution is at least 200 μl/well on a 24-well plate. The cells are infected by centrifuging at 1600 rpm (550×g)/1 hr. The nutrition medium is aspirated away and changed to a maintenance medium containing cyclohexamide and also containing the studied compound (DMSO concentration 0.2%), 1 ml/well. The cells are incubated in a 5% CO2 atmosphere at +35° C. The cells infected with C. pneumoniae are incubated for 3 days. After 2-3 days the maintenance medium is removed and the cells washed with 1×1 ml of PBS. To the wells 200 μl of SPG are added for further infection, harvested with a pipette tip and transferred into tubes. This is used for infecting new cells in the same way as above to test the inhibition of infectivity (chlamydiasidic effect).
The nutrition medium, which is above the cover glass left for staining, is aspirated away. The infected cells are fixed on the cover glass with methanol for 10 min. The cover glass is removed from the well and -transferred onto a suitable fluorescein-conjugated monoclonal antibody on Parafilm in a moist chamber with the cell-containing side down. The cover glass is incubated for 30 min at +37° C. and washed twice with PBS and once with water. Finally it is dried. The cover glass is put with the cell-containing side down on an object glass containing a fixative (e.g. Mounting medium). When viewed under the fluorescent microscope, cell culture specimens infacted with chlamydiae show a characteristic apple-green fluorescence of inclusions against a red counterstained background.

Structure (SMILES) | Effect on Ca^2+ intake [%] (Ca^2+ intake in the cell) | IC50 [1] [µM] | inhibition at 20 µg/mL (Ca^2+ intake in the cell) [%] | inhibition at 50 µM (C. pneumoniae) [%] | Inhibition % (C. pneumoniae) [%]
COc1ccc(-c2cc(=O)c3c(O)cc(O)cc3o2)cc1 [Acacetin] | −1.39% | > 3520 | – | – | –
O=c1cc(-c2ccc(O)cc2)oc2cc(O)cc(O)c12 [Apigenin] | – | > 3700 | 29.3 | 100 | –
O=C(O)c1ccccc1 [Benzoic acid] | −9.82% | > 8190 | – | – | 44
O=C(O)/C=C/c1ccc(O)c(O)c1 [Caffeic acid] | – | 21.4 | -9.71 | 78 | –
O=c1c(-c2ccc(O)cc2)coc2cc(O)ccc12 [Daidzein] | −26.2% | > 3930 | – | – | 51
CCCCCCCCCCCCOC(=O)c1cc(O)c(O)c(O)c1 [Dodecyl gallate] | – | 15.4 | 40.4 | 100 | –
COc1cc(/C=C/C(=O)O)ccc1O [Ferulic acid] | – | 44.3 | -9.23 | 14 | –
O=c1cc(-c2ccccc2)oc2ccccc12 [Flavone] | – | > 4500 | 63.5 | 90 | –
O=C(O)c1cc(O)c(O)c(O)c1 [Gallic acid] | – | 21.5 | 5.33 | 27 | –
O=c1c(-c2ccc(O)cc2)coc2cc(O)cc(O)c12 [Genistein] | – | > 3700 | 54.6 | 60 | –
COc1cc(-c2oc3cc(O)cc(O)c3c(=O)c2O)ccc1O [Isorhamnetin] | +52.4% | 18.1 | – | – | 70
